These results are taken from the Kinase Knowledgebase extract (Sharma et al. 2016).

Values joined by “and” are separate entries in the source; they are usually repeats but may differ in a detail not shown here. Equal entries are not always repeated.

For this assay, the target named is PIK3CA (human) (UniProt P42336). Kind of assay: Enzyme Assay.
Chain of PIK3CA (human) (P42336 whole entry, looked up): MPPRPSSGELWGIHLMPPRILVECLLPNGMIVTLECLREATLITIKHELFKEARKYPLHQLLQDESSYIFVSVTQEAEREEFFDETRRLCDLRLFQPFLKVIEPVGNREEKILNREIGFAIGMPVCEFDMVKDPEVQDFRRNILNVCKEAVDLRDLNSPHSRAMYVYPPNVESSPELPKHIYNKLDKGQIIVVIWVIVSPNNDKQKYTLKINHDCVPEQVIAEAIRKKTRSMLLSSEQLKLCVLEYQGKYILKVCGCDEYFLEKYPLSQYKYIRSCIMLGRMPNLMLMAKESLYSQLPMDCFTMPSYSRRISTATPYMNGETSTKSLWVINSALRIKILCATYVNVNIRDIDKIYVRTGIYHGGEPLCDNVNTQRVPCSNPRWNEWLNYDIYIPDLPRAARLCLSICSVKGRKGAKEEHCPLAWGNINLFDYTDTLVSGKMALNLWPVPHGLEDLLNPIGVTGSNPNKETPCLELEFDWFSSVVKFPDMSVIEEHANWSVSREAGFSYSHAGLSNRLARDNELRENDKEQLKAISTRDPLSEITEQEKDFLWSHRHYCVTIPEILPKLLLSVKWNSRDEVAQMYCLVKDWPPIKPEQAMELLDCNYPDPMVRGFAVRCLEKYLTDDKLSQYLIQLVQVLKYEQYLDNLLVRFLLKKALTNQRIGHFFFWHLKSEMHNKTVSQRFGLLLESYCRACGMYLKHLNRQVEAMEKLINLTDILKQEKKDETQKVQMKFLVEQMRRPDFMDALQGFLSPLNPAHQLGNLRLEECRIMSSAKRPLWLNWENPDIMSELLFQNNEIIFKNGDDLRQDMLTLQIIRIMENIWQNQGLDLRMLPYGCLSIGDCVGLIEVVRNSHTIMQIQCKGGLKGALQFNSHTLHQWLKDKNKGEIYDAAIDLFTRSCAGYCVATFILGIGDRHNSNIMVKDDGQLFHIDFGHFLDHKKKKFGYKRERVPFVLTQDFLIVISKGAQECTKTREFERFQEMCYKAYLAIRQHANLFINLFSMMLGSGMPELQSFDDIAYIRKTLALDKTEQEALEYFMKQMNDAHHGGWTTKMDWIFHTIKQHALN

The compound `CCc1ncnc(-c2ccc(C(=O)NC3CCCN(C)C3)c(Cl)c2)c1C#Cc1ccc(N)nc1` (configuration not stated) had a 50% inhibitory concentration (IC50) of 510 nM.

The compound `CCc1ncnc(-c2ccc(C(=O)N3CCN(CC4CC4)CC3)c(Cl)c2)c1C#Cc1ccc(N)nc1` came in with an IC50 of 228 nM. This IC50 is about 2.2-fold lower than that of the compound before.

In the case of `CCc1ncnc(-c2ccc(C(=O)N3CCN(S(=O)(=O)CC)CC3)c(C)c2)c1C#Cc1ccc(N)nc1`, the half-maximal inhibitory concentration (IC50) was determined as 36.8 nM.

Consider `CCc1ncnc(-c2ccc(C(=O)N3CC[C@@H](O)C3)c(Cl)c2)c1C#Cc1ccc(N)nc1`, for which the 50% inhibitory concentration (IC50) amounted to 65.6 nM.

`CCc1ncnc(-c2ccc(C(=O)N3CC[C@@H](N(C)C)C3)c(OC)c2)c1C#Cc1ccc(N)nc1`: the IC50 was 357 nM.

The compound `CCc1ncnc(-c2ccc(C(=O)N(C)C)c(F)c2)c1C#Cc1ccc(C)nc1` came in with an IC50 of 222 nM.

Consider `CCc1ncnc(-c2cc(F)c(C(=O)N3CCC4(CC3)CC(=O)CO4)c(F)c2)c1C#Cc1ccc(N)nc1`, for which the IC50 came out at 144 nM.

Take `CCc1ncnc(-c2ccc(C(=O)N3CCN(c4ccncc4)CC3)c(Cl)c2)c1C#Cc1ccc(N)nc1`: the half-maximal inhibitory concentration (IC50) came out at 209 nM. The IC50 values of the last two compounds are within 1.5-fold of each other.

`CCc1ncnc(-c2ccc(C(=O)N3CCC(N4CCC(C)CC4)C3)c(C)c2)c1C#Cc1ccc(N)nc1` (configuration not stated) returned an IC50 of 200 nM.

With `CCc1ncnc(-c2ccc(C(=O)N3CCN4CCCCC4C3)c(C)c2)c1C#Cc1ccc(N)nc1` (configuration not stated), the IC50 amounted to 115 nM. Against the preceding compound, the IC50 is about 1.7-fold lower.

For `CCc1ncnc(-c2ccc(C(=O)N3CCC(N(C)C)CC3)c(C)c2)c1C#Cc1ccc(N)nc1`, the 50% inhibitory concentration (IC50) is 232 nM. This IC50 lies about 2-fold higher than the previous one.

In the case of `Cc1ncnc(-c2ccc(Cl)c(C(=O)N3CCCCC3)c2)c1C#Cc1ccc(N)nc1`, the IC50 was found to be 309 nM.

For the compound `CCc1ncnc(-c2ccc(C(=O)N3CCC(N4CCN(C)CC4)CC3)c(C)c2)c1C#Cc1ccc(N)nc1`, the IC50 is 307 nM.

Turning to `CCNc1ccc(C#Cc2c(CC)ncnc2-c2ccc(C(=O)N3CCN(C4CCC4)CC3)c(F)c2)cn1`, the concentration for half-maximal inhibition (IC50) is 206 nM. This IC50 and that of the compound before are within 1.5-fold of each other.

As for `CCc1ncnc(-c2ccc(C(=O)N3CC[C@H](O)C3)c(Cl)c2)c1C#Cc1ccc(N)nc1`, the IC50 worked out at 58 nM. Compared with the last compound, the IC50 is about 3.6-fold lower.

`CCc1ncnc(-c2ccc(Cl)c(C(=O)N(C)C)c2)c1C#Cc1ccc(N)nc1` had an IC50 of 194 nM. This IC50 is about 3.3-fold higher than that of the compound before.

Compound `CCc1ncnc(-c2ccc(C(=O)N(C)O)c(Cl)c2)c1C#Cc1ccc(N)nc1` showed an IC50 of 67.4 nM. Against the preceding compound, the IC50 is about 2.9-fold lower.

Turning to `CCc1ncnc(-c2ccc(C(=O)N3CCOC(C)(C)C3)c(F)c2)c1C#Cc1ccc(N)nc1`, the IC50 is 108 nM.

For the compound `CCc1ncnc(-c2ccc(C(=O)N3CCCC(O)C3)c(Cl)c2)c1C#Cc1ccc(N)nc1` (configuration not stated), the IC50 was determined as 65 nM.

In turn, `CCc1ncnc(-c2ccc(C(=O)N3CCCN(C)CC3)c(Cl)c2)c1C#Cc1ccc(N)nc1` showed an IC50 of 405 nM.

Turning to `CCc1ncnc(-c2ccc(C(=O)N3CCC(C(F)(F)F)CC3)c(Cl)c2)c1C#Cc1ccc(N)nc1`, the 50% inhibitory concentration (IC50) came to 499 nM. This IC50 and that of the compound before are within 1.5-fold of each other.

With `CCc1ncnc(-c2ccc(C(=O)N3CCC[C@H]3CO)c(F)c2)c1C#Cc1ccc(N)nc1`, the IC50 was determined as 136 nM.

`CCc1ncnc(-c2ccc(C(=O)N3CCCOCC3)c(Cl)c2)c1C#Cc1ccc(N)nc1` yielded an IC50 of 65.3 nM.

The compound `CCc1ncnc(-c2ccc(C(=O)N3CCC(C)(O)CC3)c(F)c2)c1C#Cc1ccc(N)nc1` gave an IC50 of 110 nM.

With `CCc1ncnc(-c2ccc(C(=O)N3CCC(C4CCN(C)CC4)CC3)c(Cl)c2)c1C#Cc1ccc(N)nc1`, the 50% inhibitory concentration (IC50) turned out to be 374 nM.

The compound `CCc1ncnc(-c2ccc(C(=O)N(C)CCN3CCCC3=O)c(C)c2)c1C#Cc1ccc(N)nc1` had an IC50 of 31.8 nM.

The compound `CCc1ncnc(-c2ccc(C(=O)N3CCN(C4CCCC4)CC3)c(C)c2)c1C#Cc1ccc(N)nc1` had an IC50 of 90.7 nM.

In the case of `CCc1ncnc(-c2ccc(C(=O)N3CCC(O)CC3)c(Cl)c2)c1C#Cc1ccc(N)nc1`, the 50% inhibitory concentration (IC50) was 52.9 nM.

`CCc1ncnc(-c2ccc(C(=O)N3CCC(C)(O)CC3)c(Cl)c2)c1C#Cc1ccc(N)nc1`: the IC50 came to 77 nM.

Turning to `CCc1ncnc(-c2ccc(C(=O)N3CC[S+]([O-])CC3)c(F)c2)c1C#Cc1ccc(N)nc1`, the half-maximal inhibitory concentration (IC50) came to 46 nM. Compared with the last compound, the IC50 is about 1.7-fold lower.

On to `CCc1ncnc(-c2ccc(C(=O)N3CC[S+]([O-])CC3)c(Cl)c2)c1C#Cc1ccc(N)nc1`, for which the IC50 is 63.6 nM and 64 nM.

As for `CCc1ncnc(-c2ccc(C(=O)N3CCC(OC)CC3)c(F)c2)c1C#Cc1ccc(N)nc1`, the IC50 turned out to be 82 nM.

On to `CCc1ncnc(-c2ccc(C(=O)NC3CC(N4CCC(O)CC4)C3)c(F)c2)c1C#Cc1ccc(N)nc1` (configuration not stated), for which the IC50 was found to be 351 nM.

As for `CCc1ncnc(-c2ccc(C(=O)N3CCC(C(C)(C)O)CC3)c(Cl)c2)c1C#Cc1ccc(N)nc1`, the concentration for half-maximal inhibition (IC50) turned out to be 101 nM.

Regarding `CCc1ncnc(-c2ccc(C(=O)N3CCN(CCN(C)C)CC3)c(Cl)c2)c1C#Cc1ccc(N)nc1`, the IC50 turned out to be 370 nM. This IC50 lies about 3.7-fold higher than the previous one.

For `CCc1ncnc(-c2ccc(C(=O)N3CC(O)CO3)c(F)c2)c1C#Cc1ccc(N)nc1` (configuration not stated), the IC50 is 64 nM. This IC50 lies about 5.8-fold lower than the previous one.

In turn, `CCc1ncnc(-c2ccc(C(=O)N3CCC(OC)CC3)c(Cl)c2)c1C#Cc1ccc(N)nc1` yielded an IC50 of 93.5 nM.

Compound `CCc1ncnc(-c2ccc(C(=O)N3CCC(OC)CC3)c(C)c2)c1C#Cc1ccc(N)nc1` displayed an IC50 of 67.8 nM.

`CCc1ncnc(-c2ccc(C(=O)N3CCNCC3)c(Cl)c2)c1C#Cc1ccc(N)nc1` came in with an IC50 of 164 nM.

Turning to `CCc1ncnc(-c2ccc(C(=O)N3CCN(C(C)C)CC3)c(Cl)c2)c1C#Cc1ccc(N)nc1`, the IC50 is 246 nM. Against the preceding compound, the IC50 is about 1.5-fold higher.

Consider `CCc1ncnc(-c2ccc(C(=O)N3C[C@H]4C[C@@H]3CN4C)c(F)c2)c1C#Cc1ccc(N)nc1`, for which the IC50 turned out to be 333 nM.

In turn, `CCc1ncnc(-c2ccc(C(=O)N3CCCC(N(C)C)C3)c(C)c2)c1C#Cc1ccc(N)nc1` (configuration not stated) had an IC50 of 173 nM.
